Test [1] has as its target apolipoprotein(a), [apo(a)], apolipoproteinB-100, [apoB-100], coupling reaction that generates Lp(a) (Homo sapiens, UniProt P04114+P08519). Nature of the test: LPABC screen: lipoprotein(a) biochemical coupling assay, Lp(a) content by ELISA. As to conditions: recombinant apo(a) 17-kringle (293 cell media) + HepG2 conditioned media, 67 minutes, 37° C., 0.3 to 50 μM compound; read-out: Lp ABC IC50. The essentials:
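Conditioned medium from 293 cells stably expressing 17-kringle apo(a), diluted 1:3 in PBS and prewarmed 10 min at 37 °C, mixed with compound (added as 0.3–50 μM PBS solution) then 1:3-diluted HepG2 conditioned medium as apoB-100 source. Incubated 67 min at 37 °C; Lp(a) formed quantified by ELISA.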
For orientation: ELISA stands for enzyme-linked immunosorbent assay.

Test [2] deals with Lp(a) production in HepG2^K17 cells. Nature of the test: LPA3 screen: inhibition of Lp(a) production in transfected HepG2 cells, Lp(a) in media by ELISA. As to conditions: Homo sapiens, 8 hours, 0.3 to 50 μM compound, Lp(a) normalized for total protein, read-out: Lp A3 IC50. The class given is cell-based. A digest of the protocol: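 HepG2 cells stably expressing apo(a) 17-kringle construct, seeded overnight, then exposed to 0.3 to 50 μM compound for 8 h at 37 °C. Lp(a) secreted into media measured by ELISA and normalized to total cellular protein.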

pIC50: −log10 of the molar value. Where only a bound is given, the exact number is not on record here.

`O=C(c1ccccc1[N+](=O)[O-])N(Cc1ccccc1-c1ccccc1)c1cccnc1` [Example 117, N-Biphenyl-2-ylmethyl-2-nitro-N-pyridin-3-yl-benzamide]: the figures for the pIC50 in test [1] and in test [2] were under 4.30 and 4.74, respectively.
For the compound `COc1ccc(CN(C(=O)c2ccccc2)c2ccccc2)cc1` [Example 60, N-(4-Methoxy-benzyl)-N-phenyl-benzamide], the pIC50 (usually −log10 of the IC50, conventionally taken in molar units) in test [1] was under 4.30; in test [2], 4.54.
In the case of `CCN(CC)CCCc1ccc(N(Cc2cc(C(F)(F)F)cc(C(F)(F)F)c2)C(=O)c2ccccc2)cc1` [Example 52, N-(3,5-Bis-trifluoromethyl-benzyl)-N-[4-(3-diethylamino-propyl)-phenyl]-benzamide], the pIC50 was under 4.30 in test [1] and 4.92 in test [2].
For the compound `O=C(c1ccccc1Br)N(Cc1ccccc1-c1ccccc1)c1cccnc1` [Example 114, N-Biphenyl-2-ylmethyl-2-bromo-N-pyridin-3-yl-benzamide], the pIC50 in test [1] was under 4.30; in test [2], 4.57.
As for `COc1ccc(N(Cc2ccc(Cl)c(Cl)c2)C(=O)c2cc(OC)c(OC)c(OC)c2)cn1` [Example 67, N-(3,4-Dichloro-benzyl)-3,4,5-trimethoxy-N-(6-methoxy-pyridin-3-yl)-benzamide], the pIC50 in test [1] was under 4.30; in test [2], 4.26.
Turning to `O=C(c1cc2ccccc2s1)N(Cc1ccccc1-c1ccccc1)c1cccnc1` [Example 116, Benzo[b]thiophene-2-carboxylic acid biphenyl-2-ylmethyl-pyridin-3-yl-amide], the negative-log IC50 (pIC50) is under 4.30 in test [1] and 5.03 in test [2].
As to `COc1cccc(N(Cc2ccccc2-c2ccccc2)C(=O)c2ccccc2SCc2ccccc2)c1` [Example 131, 2-Benzylsulfanyl-N-biphenyl-2-ylmethyl-N-(3-methoxy-phenyl)-benzamide], the pIC50 in test [1] is under 4.30; in test [2], 4.40.
In the same order, the values of `COc1ccc(C(=O)N(Cc2ccccc2-c2ccccc2)c2ccc(OC)cc2)cc1` [Example 103, N-Biphenyl-2-ylmethyl-4-methoxy-N-(4-methoxy-phenyl)-benzamide] are under 4.30 and 4.31.
On the same counts, the results for `COc1ccc(C(=O)N(Cc2cc(C(F)(F)F)cc(C(F)(F)F)c2)c2ccccc2)cc1OC` [Example 42, N-(3,5-Bis-trifluoromethyl-benzyl)-3,4-dimethoxy-N-phenyl-benzamide] are under 4.30 and 4.15.
On the same counts, the results for `CC(C)c1ccc(C(=O)N(Cc2ccc3c(c2)C(C)(C)CCC3(C)C)c2cccnc2)cc1` [Example 68, 4-Isopropyl-N-pyridin-3-yl-N-(5,5,8,8-tetramethyl-5,6,7,8-tetrahydro-naphthalen-2-ylmethyl)-benzamide] are under 4.30 and 4.40.
Consider `COc1ccc(N(Cc2ccccc2-c2ccccc2)C(=O)c2ccccc2SCc2ccccc2)cc1OC` [Example 137, 2-Benzylsulfanyl-N-biphenyl-2-ylmethyl-N-(3,4-dimethoxy-phenyl)-benzamide], for which the pIC50 was under 4.30 in test [1] and 5.01 in test [2].
On the same counts, the results for `COc1cc(C(=O)N(Cc2ccccc2-c2ccccc2)c2cnc3ccccc3c2)cc(OC)c1OC` [Example 64, N-Biphenyl-2-ylmethyl-3,4,5-trimethoxy-N-quinolin-3-yl-benzamide] are under 4.30 and 4.88.
On the same counts, the results for `CCOc1ccccc1C(=O)N(Cc1ccccc1-c1ccccc1)c1ccccn1` [Example 110, N-Biphenyl-2-ylmethyl-2-ethoxy-N-pyridin-2-yl-benzamide] are under 4.30 and 4.85.

For the origin of these results see patent US6780883B2, “Amide inhibitors of microsomal triglyceride transfer protein” (Warner-Lambert Company, priority 1998, dated 2004).
